Laboratory results published in patent US12180476B2, “Use of PIWI-interacting RNA piR-hsa-211106” (Qingdao University, priority 2022, dated 2024).
Entries after “also recorded” stand apart in the source; their conditions may differ.

How the values were obtained:
[1] = test system: pyruvate carboxylase; assay: qRT-PCR analysis of gene expression level in lung adenocarcinoma cells; assay type: cell-based; details: FIG. 11
Experimental: (§1) This example related to a process of transfecting an agonist to lung adenocarcinoma cells: after the lung adenocarcinoma cells were passaged to a cell density of about 30-50%, the agonist was transfected to the lung adenocarcinoma cells by lipo3000. 5 μl (100 pmol) of the agonist was added to an EP tube containing 95 μl of a DMEM medium by pipetting and mixing, 5 μl of lipo3000 was added to the EP tube containing 95 μl of the DMEM medium by pipetting and mixing, the two materials were mixed at a volume ratio of 1:1 to form a transfection mixture, the mixture was allowed to stand at a room temperature for 20 min and added into a culture plate, and an analysis at gene and protein levels was conducted after 48 h. […]

[2] = test system: lung adenocarcinoma cells HCC2279; assay: Edu staining proliferation assay; assay type: cell-based; details: after transfection for two days, FIGS. 2 and 3
Experimental: as §1

[3] = test system: lung adenocarcinoma cells A549; assay: Edu staining proliferation assay; assay type: cell-based; details: after transfection for two days, FIGS. 2 and 3
Experimental: as §1

[4] = test system: lung adenocarcinoma cells HCC2279; assay: Scratch experiment migration assay; assay type: cell-based; details: after transfection for two days, 0 h and 24 h after scratching, FIGS. 6 and 7
Experimental: (§2) This example related to a process of transfecting an agonist to lung adenocarcinoma cells: after the lung adenocarcinoma cells were passaged to a cell density of about 30-50%, the agonist was transfected to the lung adenocarcinoma cells by lipo3000. 5 μl (100 pmol) of the agonist was added to an EP tube containing 95 μl of a DMEM medium by pipetting and mixing, 5 μl of lipo3000 was added to the EP tube containing 95 μl of the DMEM medium by pipetting and mixing, the two materials were mixed at a volume ratio of 1:1 to form a transfection mixture, the mixture was allowed to stand at a room temperature for 20 min and added into a culture plate, and an analysis at gene and protein levels was conducted after 48 h.

[5] = test system: lung adenocarcinoma cells A549; assay: Scratch experiment migration assay; assay type: cell-based; details: after transfection for two days, 0 h and 24 h after scratching, FIGS. 6 and 7
Experimental: as §2

[6] = test system: A549 cells; assay: Tumor-bearing model of a nude mouse, intratumoral treatment; assay type: in vivo, BALB/c nude mice
Experimental: This example related to a process of constructing a tumor-bearing model of a nude mouse: 3- to 4-week-old BALB/c nude mice (SiPeiFu Laboratory Animal Technology Co., Ltd) were taken and used for an experiment after adapting to local conditions for 1 week, 2×10^7 of A549 cells were injected subcutaneously into left and right armpits of the mice, and when an implanted tumor reached 50 mm^3, a drug treatment was conducted.
This example related to a drug-targeted treatment process of a tumor-bearing model of a nude mouse: • The nude mice were divided into two groups: a cisplatin experimental group and a normal saline control group, with 5 nude mice in each group; • The nude mice in the experimental group were injected intraperitoneally with cisplatin (5 mg/kg body weight/week), 50 μM of a PIWI-interacting RNA piR-hsa-211106 agonist was injected directly into a tumor on a right side and piR-NC (Shanghai GenePharma Co., Ltd) was injected into a tumor on a left side as a control group of the cisplatin treatment group; • An equal volume of normal saline was injected intraperitoneally into the nude mice in the control group, the PIWI-interacting RNA piR-hsa-211106 agonist was used to treat the tumor as above, the PIWI-interacting RNA piR-hsa-211106 agonist was used for treatment every other day for 28 days, and the tumor volume was measured once a week; the mice were sacrificed at an end of the experiment, and xenografts were peeled off and photographed.

[7] = test system: lung adenocarcinoma cells HCC2279; assay: Apoptosis by flow cytometry (Annexin V-FITC/PI); assay type: cell-based; details: after transfection for two days, FIGS. 8 and 9
Experimental: (§3) This example related to a process of transfecting an agonist to lung adenocarcinoma cells: after the lung adenocarcinoma cells were passaged to a cell density of about 30-50%, the agonist was transfected to the lung adenocarcinoma cells by lipo3000. […]
(§4) This example related to a detection process of apoptosis of lung adenocarcinoma cells A549 and HCC2279 by a flow cytometry: the lung adenocarcinoma cells were cultured, the cells in the experimental group were transfected with a PIWI-interacting RNA piR-hsa-211106, after transfection for two days, apoptosis was detected by Annexin V-FITC/PI (Shanghai YEASEN Biotechnology Co., Ltd): • (1) after the lung adenocarcinoma cells were digested with a trypsin without EDTA, centrifugation was conducted at 300 g and 4° C. for 5 min and the cells were collected; • (2) the cells were washed twice with a pre-cooled PBS, centrifugation was conducted at 300 g and 4° C. for 5 min each time and 1-5×10^5 cells were collected; • (3) the PBS was pipetted and discarded, and 1× binding buffer was added to resuspend the cells; • (4) annexin V-FITC and a PI staining solution were added, gentle mixing was conducted, and reaction was conducted in dark at room temperature for 10-15 min; and • (5) 1× binding buffer was added, even mixing was conducted, an obtained mixture was placed on ice, and detection was conducted with the flow cytometry within 1 h.

[8] = test system: lung adenocarcinoma cells A549; assay: Apoptosis by flow cytometry (Annexin V-FITC/PI); assay type: cell-based; details: after transfection for two days, FIGS. 8 and 9
Experimental: as §3, §4

[9] = test system: pyruvate carboxylase; assay: Western blot analysis of protein expression level in lung adenocarcinoma cells; assay type: cell-based; details: GAPDH internal reference, FIG. 12
Experimental: as §1
the protein samples were separated by an SDS-PAGE electrophoresis, the separated proteins were transferred to a PVDF membrane, the membrane was blocked with 5% powdered skim milk for 1 h, the membrane was washed, an incubation with a primary antibody (PC, GAPDH) was conducted overnight in a 4° C. refrigerator, the membrane was washed, an incubation with a secondary antibody was conducted at room temperature for 1 h, the membrane was washed, a target band was obtained by ECL chemiluminescence method, the band was subjected to a grayscale scanning by using a Quantity One software and a GAPDH internal reference was used for correction.

[10] = test system: lung adenocarcinoma cells HCC2279; assay: Transwell chamber migration assay; assay type: cell-based; details: after transfection for two days, 24 h migration, FIGS. 4 and 5
Experimental: as §2

[11] = test system: lung adenocarcinoma cells A549; assay: Transwell chamber migration assay; assay type: cell-based; details: after transfection for two days, 24 h migration, FIGS. 4 and 5
Experimental: as §2

[12] = test system: lung adenocarcinoma cells HCC2279; assay: CCK8 proliferation activity assay; assay type: cell-based; details: 0, 1, 2, 3, and 4 days after transfection, FIG. 1
Experimental: as §2

[13] = test system: lung adenocarcinoma cells A549; assay: CCK8 proliferation activity assay; assay type: cell-based; details: 0, 1, 2, 3, and 4 days after transfection, FIG. 1
Experimental: as §2

[14] = target: T1, pyruvate carboxylase (Homo sapiens, UniProt P11498); assay: Biotin-coupled probe RNA pull-down assay with western blot; assay type: binding; details: biotinylated piR-hsa-211106 probe, lung adenocarcinoma cell lysate; FIG. 10
T1 construct: 1×10^7 lung adenocarcinoma cells were harvested, lysed and subjected to an ultrasonic treatment; endogenous in cells
T1 sequence (P11498 21-1178): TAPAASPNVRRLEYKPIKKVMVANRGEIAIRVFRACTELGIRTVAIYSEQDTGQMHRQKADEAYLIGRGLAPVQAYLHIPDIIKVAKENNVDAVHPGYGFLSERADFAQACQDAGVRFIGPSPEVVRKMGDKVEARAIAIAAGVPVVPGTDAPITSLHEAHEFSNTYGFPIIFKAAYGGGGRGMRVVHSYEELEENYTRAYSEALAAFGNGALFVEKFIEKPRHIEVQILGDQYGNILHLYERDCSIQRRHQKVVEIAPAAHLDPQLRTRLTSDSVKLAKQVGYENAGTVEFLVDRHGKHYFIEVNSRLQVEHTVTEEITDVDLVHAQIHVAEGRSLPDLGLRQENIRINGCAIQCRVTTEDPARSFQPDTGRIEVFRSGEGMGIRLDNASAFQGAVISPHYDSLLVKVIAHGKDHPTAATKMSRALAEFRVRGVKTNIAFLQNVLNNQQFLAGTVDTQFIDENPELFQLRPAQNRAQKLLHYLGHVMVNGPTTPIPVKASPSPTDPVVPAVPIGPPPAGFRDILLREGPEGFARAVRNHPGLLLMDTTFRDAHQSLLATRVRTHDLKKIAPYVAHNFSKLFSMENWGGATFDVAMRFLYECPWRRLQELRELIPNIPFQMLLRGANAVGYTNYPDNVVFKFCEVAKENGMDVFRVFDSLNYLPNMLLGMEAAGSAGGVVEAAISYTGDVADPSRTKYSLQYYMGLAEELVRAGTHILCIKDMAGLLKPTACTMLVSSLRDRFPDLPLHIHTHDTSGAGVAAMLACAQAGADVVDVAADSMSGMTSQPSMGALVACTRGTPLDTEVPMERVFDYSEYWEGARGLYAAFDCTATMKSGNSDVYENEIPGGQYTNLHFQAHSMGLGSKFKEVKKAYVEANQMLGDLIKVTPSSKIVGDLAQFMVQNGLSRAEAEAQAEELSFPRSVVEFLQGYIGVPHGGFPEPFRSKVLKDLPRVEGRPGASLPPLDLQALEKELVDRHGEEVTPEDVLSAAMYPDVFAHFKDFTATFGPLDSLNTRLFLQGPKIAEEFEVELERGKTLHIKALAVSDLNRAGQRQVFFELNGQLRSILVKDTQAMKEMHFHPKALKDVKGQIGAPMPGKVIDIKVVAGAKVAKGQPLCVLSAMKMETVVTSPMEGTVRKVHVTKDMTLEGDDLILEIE

[15] = injected into tumors in nude mice, versus control groups

Which “expression of pyruvate carboxylase (gene expression level, qRT-PCR)” value [1] does the source give for “piR-hsa-211106: PIWI-interacting RNA, SEQ ID NO:1 TCCGGCTCGAAGGACTTCGTCTGTAATTTT; used as double-strand agonist with cholesterol, thio skeleton and methoxy modifications (cholesterol, phosphorothioate and 2'-OMe modifications, pattern not given here, duplex)” here?
Its value is “significantly inhibit an expression”.

And the “proportion of proliferating cells (Edu staining)” value [2]?
The value was “significantly inhibit the growth”.

What about the “proportion of proliferating cells (Edu staining)” value [3] of the same substance?
The value was “significantly inhibit the growth”.

What about the “migration ability (scratch experiment, relative migration rate)” value [4] of the same substance?
Its value is “significantly inhibit the migration ability”.

And the “migration ability (scratch experiment, relative migration rate)” value [5]?
The value was “significantly inhibit the migration ability”.

And the “therapeutic effect compared with positive control cisplatin” value ([6]; 50 μM agonist injected directly into tumor every other day for 28 days, cisplatin 5 mg/kg body weight/week intraperitoneally, FIGS. 13, 14 and 15)?
Its value is “comparable to that of the positive control group treated with cisplatin; also recorded: comparable therapeutic effect as the positive control drug cisplatin”.

And the “growth of lung adenocarcinoma in vivo” value ([6]; A549 tumor in nude mice, agonist intratumoral every other day for 28 days)?
Its value is “capable of inhibiting growth of lung adenocarcinoma in vivo”.

And the “effect in combination with cisplatin” value ([6]; agonist intratumoral plus cisplatin 5 mg/kg body weight/week intraperitoneally, 28 days)?
Its value is “increases chemical sensitivity of the chemotherapeutic drug cisplatin and has a synergistic effect”.

And the tumor volume [6, 15]?
Its tumor volume is “smaller than those of the control groups”.

What about the tumor weight [6, 15] of the same substance?
The tumor weight was “smaller than those of the control groups”.

What about the “apoptosis (flow cytometry)” value [7] of the same substance?
The value was “significantly cause the apoptosis”.

And the “apoptosis (flow cytometry)” value [8]?
Its value is “significantly cause the apoptosis”.

And the “expression of pyruvate carboxylase at a protein level (WB)” value [9]?
Its value is “can regulate an expression of a pyruvate carboxylase at a protein level”.

And the “migration ability (Transwell chamber, migrated cells counted)” value [10]?
Its value is “significantly inhibit the migration ability”.

What about the “migration ability (Transwell chamber, migrated cells counted)” value [11] of the same substance?
Its value is “significantly inhibit the migration ability”.

And the “cell proliferation activity (OD value at 450 nm, CCK8)” value [12]?
The value was “significantly inhibit the proliferation”.

And the “cell proliferation activity (OD value at 450 nm, CCK8)” value [13]?
The value was “significantly inhibit the proliferation”.

And the “binding to pyruvate carboxylase (RNA pull-down)” value [14]?
The value was “binds to the PC; also recorded: can bind to a pyruvate carboxylase”.
